# Test results taken from ChEMBL document CHEMBL1201862, “PubChem BioAssay data set” (2004).
# The source made the active and inactive calls.
# Assays:
# [1] = A cytotoxicity screen of small molecule inhibitors of the PhoP region in Salmonella typhi identified in the primary screen. [Related pubchem assays: 1850, 1864, 1985 ]; assay type: functional
# CAAX prenyl protease 1 = CAAX prenyl protease 1 (Saccharomyces cerevisiae S288c, UniProt P47154); assay: yeast CAAX protease Ste24 inhibition – biochemical, S. cerevisiae, plate reader, cherry-pick, dose response (AID 488815)
# [2] = target: T1, DNA repair and recombination protein RAD54-like (Homo sapiens, UniProt Q92698); assay: RAD54 Holliday junction migration blockers – biochemical, fluorescence, cherry-picked samples, dose series, confirmation (AID 651657); assay type: functional
# T1 sequence (Q92698 whole entry): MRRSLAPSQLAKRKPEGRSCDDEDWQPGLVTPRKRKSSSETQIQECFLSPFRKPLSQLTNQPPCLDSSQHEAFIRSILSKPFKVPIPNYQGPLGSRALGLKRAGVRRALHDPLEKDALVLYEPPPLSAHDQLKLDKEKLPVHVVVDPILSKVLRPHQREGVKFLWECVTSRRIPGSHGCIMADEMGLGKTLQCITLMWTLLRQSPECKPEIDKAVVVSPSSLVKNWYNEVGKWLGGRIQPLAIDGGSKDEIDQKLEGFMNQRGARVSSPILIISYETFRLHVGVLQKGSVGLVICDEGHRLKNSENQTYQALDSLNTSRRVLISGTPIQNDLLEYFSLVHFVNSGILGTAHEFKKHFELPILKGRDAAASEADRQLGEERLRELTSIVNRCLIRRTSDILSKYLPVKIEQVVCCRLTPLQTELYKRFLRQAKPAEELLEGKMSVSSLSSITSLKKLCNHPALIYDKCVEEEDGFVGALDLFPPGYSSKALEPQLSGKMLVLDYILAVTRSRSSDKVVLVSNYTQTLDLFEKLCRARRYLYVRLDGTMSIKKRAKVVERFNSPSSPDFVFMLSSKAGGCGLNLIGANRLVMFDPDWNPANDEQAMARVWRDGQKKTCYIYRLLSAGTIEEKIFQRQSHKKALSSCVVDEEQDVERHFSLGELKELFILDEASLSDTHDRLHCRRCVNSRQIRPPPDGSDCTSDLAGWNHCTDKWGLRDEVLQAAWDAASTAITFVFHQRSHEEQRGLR
# [3] = target: DNA repair protein RAD52 homolog (Homo sapiens, UniProt P43351); assay type: functional, biochemical
# [4] = target: T2, Short transient receptor potential channel 4 (Mus musculus, UniProt Q9QUQ5); assay: block of DAMGO-driven TRPC4 calcium entry – cell-based, HEK293 TRPC4/mu-opioid, Fluo-4 calcium, dose response (AID 434942); assay type: functional;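 further: potency of inhibitors blocking the TRPC4 calcium response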
# T2 sequence (Q9QUQ5 whole entry): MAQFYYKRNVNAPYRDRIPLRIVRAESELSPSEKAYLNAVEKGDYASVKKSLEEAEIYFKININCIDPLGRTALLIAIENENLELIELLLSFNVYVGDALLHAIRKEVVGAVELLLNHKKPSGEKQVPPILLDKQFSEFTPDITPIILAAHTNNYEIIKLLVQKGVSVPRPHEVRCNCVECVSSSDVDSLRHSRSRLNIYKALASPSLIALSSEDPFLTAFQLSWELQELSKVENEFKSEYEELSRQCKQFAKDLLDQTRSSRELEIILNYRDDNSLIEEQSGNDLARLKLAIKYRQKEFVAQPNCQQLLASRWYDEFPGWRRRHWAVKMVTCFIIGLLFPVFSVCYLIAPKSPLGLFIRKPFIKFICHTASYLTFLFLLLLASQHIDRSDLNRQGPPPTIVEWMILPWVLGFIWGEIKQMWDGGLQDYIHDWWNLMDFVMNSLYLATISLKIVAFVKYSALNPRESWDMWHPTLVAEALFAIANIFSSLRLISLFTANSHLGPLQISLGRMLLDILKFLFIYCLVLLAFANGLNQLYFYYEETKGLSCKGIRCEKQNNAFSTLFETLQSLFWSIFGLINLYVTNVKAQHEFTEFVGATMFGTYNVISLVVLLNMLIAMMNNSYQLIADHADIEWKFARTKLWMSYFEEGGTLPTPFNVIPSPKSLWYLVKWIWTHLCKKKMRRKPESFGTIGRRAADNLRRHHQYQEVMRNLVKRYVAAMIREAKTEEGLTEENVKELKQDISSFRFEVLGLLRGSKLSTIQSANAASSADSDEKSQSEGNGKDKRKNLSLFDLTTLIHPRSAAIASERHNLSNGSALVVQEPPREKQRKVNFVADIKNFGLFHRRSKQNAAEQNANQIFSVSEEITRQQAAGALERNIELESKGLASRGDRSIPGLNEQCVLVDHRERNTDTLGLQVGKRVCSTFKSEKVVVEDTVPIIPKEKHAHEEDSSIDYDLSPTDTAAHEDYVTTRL
# [5] = test system: Streptococcus sp. 'group A'; assay: Streptococcus pyogenes SK(-)GAS viability under kanamycin – luminescence, BacTiterGlo, confirmation, counter-screen for streptokinase expression inhibitor project, dose response (AID 1900); assay type: functional, organism-based
# Exodeoxyribonuclease V = Exodeoxyribonuclease V (Escherichia coli (strain K12), UniProt P04993+P07648+P08394); assay: RecBCD inhibition via phage-restricted bacterial growth – absorbance, V66 E. coli, mutant T4 phage, counter-screen for AddAB inhibitor project, dose response (AID 492957); assay type: functional, cell-based, Escherichia coli str. K-12 substr. MG1655
# INS1 = assay: INS-1E survival protection against cytokine death – cell-based, luminescence, retest, dose response (AID 449756); assay type: functional; conditions: Rattus norvegicus;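 further: cell death triggered by IL-1 beta plus TNF-alpha plus IFN-gamma mixture; protective hits raise ATP signal compared with cytokine alone wells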
# HEK293 [6] = assay: cells; assay type: functional, cell-based; conditions: Homo sapiens
# HEK293 [7] = assay: cells; assay type: functional, cell-based; conditions: Homo sapiens; remark: listed apart in the source
# HEK293 [8] = assay: inhibition of NOD1-driven NF-kB reporter – cell-based, luminescence, uHTS, primary screen (AID 1578); assay type: functional; conditions: Homo sapiens
# HEK293 [9] = assay: NOD2 signaling inhibitors in MDP-stimulated cells, cell-based, uHTS, luminescence (AID 2001); assay type: functional; conditions: Homo sapiens
# [10] = Counterscreen for AddAB inhibitors: absorbance-based bacterial cell-based high throughput dose response assay for inhibitors of bacterial viability. [Related pubchem assays (depositor defined):AID435030, AID449728, AID449731, AID488942, AID488955, AID488956]; assay type: functional
# Streptokinase A = target: T3, Streptokinase A (Streptococcus pyogenes serotype M1, UniProt P10520); assay: viability-normalized secreted streptokinase activity reduction – plasminogen activation absorbance, OD405, dose response (AID 1914); assay type: functional, Streptococcus pyogenes M1 GAS;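 further: secreted streptokinase activity via plasminogen activation per viability signal from cell pellet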
# T3 sequence (P10520 whole entry): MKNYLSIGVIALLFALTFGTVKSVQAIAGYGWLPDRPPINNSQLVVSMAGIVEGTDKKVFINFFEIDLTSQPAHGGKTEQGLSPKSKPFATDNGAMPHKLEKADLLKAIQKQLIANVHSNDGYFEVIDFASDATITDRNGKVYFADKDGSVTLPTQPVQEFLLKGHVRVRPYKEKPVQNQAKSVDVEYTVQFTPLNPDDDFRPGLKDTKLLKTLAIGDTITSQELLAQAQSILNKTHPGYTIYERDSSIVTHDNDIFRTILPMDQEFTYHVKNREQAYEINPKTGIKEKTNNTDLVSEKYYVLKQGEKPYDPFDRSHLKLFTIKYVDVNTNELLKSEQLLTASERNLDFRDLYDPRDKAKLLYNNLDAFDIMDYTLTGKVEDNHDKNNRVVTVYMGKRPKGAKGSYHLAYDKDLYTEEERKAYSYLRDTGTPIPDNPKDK
# Streptococcus = assay: GAS UMAA2166 growth inhibition – luminescence, BacTiterGlo, counter-screen for streptokinase expression inhibitor project, dose response (AID 1915); assay type: functional, organism-based;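 further: potency for reduction of bacterial viability or growth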
# [11] = target: Cyclin-dependent kinase 5/CDK5 activator 1 (Homo sapiens, UniProt Q00535); assay: blockade of human CDK5 activity – biochemical, cherry-picked samples, set 2, dose response (AID 504545)
# cells [12] = assay type: functional, cell-based
# [13] = MIN6 cell viability loss – mouse insulinoma, cytotoxicity control, dose response (AID 2122); assay type: functional;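 further: confirmatory high-throughput counterscreen run to flag cytotoxic compounds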
# [14] = target: T4, Alkaline phosphatase, tissue-nonspecific isozyme (Homo sapiens, UniProt P05186); assay: activation of tissue-nonspecific alkaline phosphatase – biochemical, TNAP isozyme, human IAP uHTS hits, selectivity assay for human IAP activator project, dose response (AID 488886); assay type: functional;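 further: potency of compounds raising TNAP activity as a selectivity check on IAP activators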
# T4 sequence (P05186 whole entry): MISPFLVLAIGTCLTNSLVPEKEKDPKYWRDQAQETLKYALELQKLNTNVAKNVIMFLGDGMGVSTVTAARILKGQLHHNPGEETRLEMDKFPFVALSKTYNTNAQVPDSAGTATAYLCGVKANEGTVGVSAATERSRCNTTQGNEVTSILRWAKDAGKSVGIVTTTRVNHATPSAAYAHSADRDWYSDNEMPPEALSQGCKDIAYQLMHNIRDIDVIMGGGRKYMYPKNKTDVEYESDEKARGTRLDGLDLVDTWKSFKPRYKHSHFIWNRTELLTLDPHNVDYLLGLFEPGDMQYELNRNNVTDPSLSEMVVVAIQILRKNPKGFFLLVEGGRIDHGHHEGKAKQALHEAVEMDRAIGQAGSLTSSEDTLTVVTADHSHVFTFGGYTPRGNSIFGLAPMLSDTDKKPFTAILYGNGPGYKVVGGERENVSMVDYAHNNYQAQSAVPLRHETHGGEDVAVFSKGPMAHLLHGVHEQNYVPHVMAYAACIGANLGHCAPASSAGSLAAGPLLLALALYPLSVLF
# [15] = NIH-3T3 fibroblast cytotoxicity, dose response, cytotoxicity control, cell-based, fluorescence, Alamar Blue, secondary assay (AID 2327); assay type: functional;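 further: NIH-3T3 mouse fibroblasts cultured with fluconazole at 8 µg/mL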
# [16] = decrease of insulin promoter-GFP reporter – imaging, high-content screening, mouse beta cells (AID 1628); assay type: functional; conditions: MIN6
# [17] = fluconazole-exposed Candida albicans growth modulators – fluorescence, retest, confirmation (AID 2467); assay type: functional, cell-based
# [18] = target: T5, Intestinal-type alkaline phosphatase (Homo sapiens, UniProt P09923); assay: activation of human intestinal alkaline phosphatase – biochemical, luminescent, uHTS hits, set 2, dose response (AID 488817); assay type: functional;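 further: potency of activators that raise enzyme activity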
# cells [19] = assay type: functional, cell-based; remark: listed apart in the source
# [20] = NIH3T3 cell viability loss – ATP luminescence, mouse fibroblasts, counter-screen, dose response (AID 2010); assay type: functional, cell-based;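 further: cells exposed to compound for about 90 hours before reading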
# [21] = target: T5, Intestinal-type alkaline phosphatase; assay: human intestinal alkaline phosphatase activators, dose response, biochemical, luminescence, uHTS hits (AID 463120); assay type: functional
# [22] = target: Intestinal-type alkaline phosphatase (Mus musculus, UniProt P24822); assay: PubChem AID 488874; assay type: functional
# [23] = Trypanosoma cruzi growth suppression in host cells – NIH3T3 host cells, beta-gal luminescence, confirmation (AID 2044); assay type: functional, cell-based;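 further: intracellular parasites grown in NIH/3T3 mouse fibroblasts as host cells; luminescent beta-galactosidase reporter signal from transgenic T. cruzi replicating inside host cells; inhibitors lower the luminescence signal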
# [24] = alpha-synuclein stem-loop translation blockers – luminescence, H4 neuroglioblastoma cells, dose confirmation, confirmation (AID 2454); assay type: functional, cell-based;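 further: H4 neuroglioblastoma cells carrying an alpha-synuclein 5'UTR luciferase reporter; potency for inhibition of the luciferase signal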
# cells [25] = assay type: functional, cell-based; remark: listed apart in the source
# [26] = alpha-synuclein stem-loop luciferase translation blockers – H4 neuroglioma cells, luminescence, confirmation (AID 1988); assay type: functional, cell-based
# [27] = HEK-293T viability loss after treatment – luminescence, T-cell screen hits, cytotoxicity control for TCR NF-kB inhibitor project, dose response (AID 489026); assay type: functional, cell-based;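 further: cells exposed to compound about 14 hours before the viability readout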
# [28] = luciferase reporter signal reduction – luminescence, H4-C neuroglioblastoma cells, dose response (AID 2458); assay type: functional, cell-based;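 further: H4 neuroglioblastoma cells stably carrying a luciferase reporter gene fusion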
# T5 sequence (P09923 whole entry): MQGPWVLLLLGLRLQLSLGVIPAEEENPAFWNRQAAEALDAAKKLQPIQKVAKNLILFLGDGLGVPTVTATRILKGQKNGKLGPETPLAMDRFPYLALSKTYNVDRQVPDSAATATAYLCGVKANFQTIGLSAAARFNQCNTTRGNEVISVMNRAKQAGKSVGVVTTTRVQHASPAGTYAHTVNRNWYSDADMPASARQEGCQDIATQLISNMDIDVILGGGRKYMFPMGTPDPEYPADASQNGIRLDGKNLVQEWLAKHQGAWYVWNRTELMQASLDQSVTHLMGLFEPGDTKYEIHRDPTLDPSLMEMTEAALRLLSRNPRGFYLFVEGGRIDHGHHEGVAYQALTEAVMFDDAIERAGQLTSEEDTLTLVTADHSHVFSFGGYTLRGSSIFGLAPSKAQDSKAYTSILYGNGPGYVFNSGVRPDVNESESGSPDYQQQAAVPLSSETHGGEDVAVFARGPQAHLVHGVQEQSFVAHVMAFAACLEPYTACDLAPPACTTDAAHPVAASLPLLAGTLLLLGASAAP
# Chain of Intestinal-type alkaline phosphatase (Mus musculus, UniProt P24822) (P24822 whole entry): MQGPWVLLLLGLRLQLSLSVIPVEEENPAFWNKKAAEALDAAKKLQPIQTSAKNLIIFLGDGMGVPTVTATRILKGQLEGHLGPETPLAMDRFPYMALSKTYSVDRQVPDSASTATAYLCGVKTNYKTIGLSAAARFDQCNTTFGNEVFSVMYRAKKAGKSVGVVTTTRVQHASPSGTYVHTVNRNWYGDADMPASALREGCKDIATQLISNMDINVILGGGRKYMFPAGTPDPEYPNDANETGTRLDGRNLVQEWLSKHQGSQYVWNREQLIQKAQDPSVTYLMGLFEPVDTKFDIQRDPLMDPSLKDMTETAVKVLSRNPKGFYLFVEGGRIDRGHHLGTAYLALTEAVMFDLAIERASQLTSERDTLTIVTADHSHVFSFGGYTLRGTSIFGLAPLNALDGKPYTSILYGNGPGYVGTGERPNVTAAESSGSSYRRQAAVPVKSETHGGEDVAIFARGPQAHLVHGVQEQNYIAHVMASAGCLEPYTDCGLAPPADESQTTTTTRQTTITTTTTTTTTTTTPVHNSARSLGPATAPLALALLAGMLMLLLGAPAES
# Chain of Exodeoxyribonuclease V (P04993 whole entry): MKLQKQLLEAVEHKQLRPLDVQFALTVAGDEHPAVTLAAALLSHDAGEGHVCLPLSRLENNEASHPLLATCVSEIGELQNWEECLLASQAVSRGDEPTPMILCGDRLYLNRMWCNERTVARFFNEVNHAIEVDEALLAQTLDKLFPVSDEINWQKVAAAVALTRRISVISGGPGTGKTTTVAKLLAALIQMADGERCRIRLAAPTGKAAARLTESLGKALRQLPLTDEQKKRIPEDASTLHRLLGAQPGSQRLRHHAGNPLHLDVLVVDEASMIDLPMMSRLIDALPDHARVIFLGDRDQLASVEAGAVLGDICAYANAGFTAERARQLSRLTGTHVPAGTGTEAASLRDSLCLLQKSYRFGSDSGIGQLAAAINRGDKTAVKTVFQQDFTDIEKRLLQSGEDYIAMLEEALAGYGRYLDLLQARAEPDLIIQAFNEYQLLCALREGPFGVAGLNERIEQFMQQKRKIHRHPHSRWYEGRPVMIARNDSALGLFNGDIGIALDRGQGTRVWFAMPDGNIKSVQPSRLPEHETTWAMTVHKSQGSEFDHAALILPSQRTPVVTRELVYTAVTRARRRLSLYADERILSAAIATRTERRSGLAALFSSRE
# Chain of Exodeoxyribonuclease V (P07648 whole entry): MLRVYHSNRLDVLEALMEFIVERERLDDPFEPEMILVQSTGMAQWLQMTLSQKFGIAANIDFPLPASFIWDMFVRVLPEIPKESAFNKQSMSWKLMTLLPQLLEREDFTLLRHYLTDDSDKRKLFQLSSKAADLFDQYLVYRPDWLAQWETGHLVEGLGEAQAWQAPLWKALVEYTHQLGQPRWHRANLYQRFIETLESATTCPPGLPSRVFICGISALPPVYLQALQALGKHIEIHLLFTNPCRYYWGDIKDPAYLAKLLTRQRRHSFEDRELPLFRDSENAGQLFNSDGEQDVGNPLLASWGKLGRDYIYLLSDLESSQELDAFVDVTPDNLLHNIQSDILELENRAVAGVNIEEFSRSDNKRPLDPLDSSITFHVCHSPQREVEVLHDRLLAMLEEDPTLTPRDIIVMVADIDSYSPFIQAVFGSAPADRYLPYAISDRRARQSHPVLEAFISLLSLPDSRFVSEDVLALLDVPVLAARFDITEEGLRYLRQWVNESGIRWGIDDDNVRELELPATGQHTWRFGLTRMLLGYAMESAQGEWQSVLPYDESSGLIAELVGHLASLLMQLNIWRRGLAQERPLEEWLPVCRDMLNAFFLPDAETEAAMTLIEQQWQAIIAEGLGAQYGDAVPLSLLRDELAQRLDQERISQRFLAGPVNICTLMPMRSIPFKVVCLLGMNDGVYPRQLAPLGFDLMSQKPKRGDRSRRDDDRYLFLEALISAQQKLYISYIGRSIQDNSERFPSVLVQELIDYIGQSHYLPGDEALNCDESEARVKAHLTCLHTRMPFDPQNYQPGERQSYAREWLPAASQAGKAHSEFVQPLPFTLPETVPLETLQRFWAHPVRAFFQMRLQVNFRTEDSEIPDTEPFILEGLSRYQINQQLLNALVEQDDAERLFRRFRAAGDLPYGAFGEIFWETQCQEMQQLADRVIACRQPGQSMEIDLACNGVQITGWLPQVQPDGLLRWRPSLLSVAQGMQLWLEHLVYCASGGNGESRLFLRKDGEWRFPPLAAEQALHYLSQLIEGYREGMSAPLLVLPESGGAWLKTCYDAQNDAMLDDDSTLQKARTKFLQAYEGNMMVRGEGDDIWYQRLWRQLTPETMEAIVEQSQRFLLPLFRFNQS
# Chain of Exodeoxyribonuclease V (P08394 whole entry): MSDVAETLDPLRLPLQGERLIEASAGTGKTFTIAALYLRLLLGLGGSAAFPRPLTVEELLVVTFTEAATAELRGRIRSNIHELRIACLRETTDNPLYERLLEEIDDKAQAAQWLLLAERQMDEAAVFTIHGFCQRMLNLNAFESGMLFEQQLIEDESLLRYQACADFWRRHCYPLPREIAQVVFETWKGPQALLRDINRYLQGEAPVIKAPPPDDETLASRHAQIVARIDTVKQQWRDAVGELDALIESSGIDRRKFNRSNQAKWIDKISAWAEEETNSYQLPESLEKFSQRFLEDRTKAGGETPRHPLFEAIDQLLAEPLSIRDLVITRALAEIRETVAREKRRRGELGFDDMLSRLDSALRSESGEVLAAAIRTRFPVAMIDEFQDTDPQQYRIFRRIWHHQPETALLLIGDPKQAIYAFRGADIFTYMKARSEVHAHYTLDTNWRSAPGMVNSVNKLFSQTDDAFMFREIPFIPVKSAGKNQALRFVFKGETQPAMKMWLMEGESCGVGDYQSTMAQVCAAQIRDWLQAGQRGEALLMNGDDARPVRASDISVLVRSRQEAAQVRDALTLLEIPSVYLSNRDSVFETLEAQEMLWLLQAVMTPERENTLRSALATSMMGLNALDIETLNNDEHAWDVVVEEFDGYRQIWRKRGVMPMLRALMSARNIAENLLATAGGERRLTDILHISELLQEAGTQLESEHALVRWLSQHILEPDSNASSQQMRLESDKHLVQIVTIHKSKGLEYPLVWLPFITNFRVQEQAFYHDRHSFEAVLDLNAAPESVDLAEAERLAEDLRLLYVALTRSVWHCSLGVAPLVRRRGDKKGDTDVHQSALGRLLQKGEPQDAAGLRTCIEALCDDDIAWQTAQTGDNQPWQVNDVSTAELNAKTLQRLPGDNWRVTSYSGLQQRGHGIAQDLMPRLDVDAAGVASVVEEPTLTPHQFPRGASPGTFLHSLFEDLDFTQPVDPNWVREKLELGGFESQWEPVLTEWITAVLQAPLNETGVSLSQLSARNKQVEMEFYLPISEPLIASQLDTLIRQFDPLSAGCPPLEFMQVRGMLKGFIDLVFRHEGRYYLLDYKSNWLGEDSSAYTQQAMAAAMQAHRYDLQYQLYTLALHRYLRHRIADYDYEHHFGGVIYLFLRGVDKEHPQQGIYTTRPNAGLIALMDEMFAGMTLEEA
# Chain of DNA repair protein RAD52 homolog (P43351 whole entry): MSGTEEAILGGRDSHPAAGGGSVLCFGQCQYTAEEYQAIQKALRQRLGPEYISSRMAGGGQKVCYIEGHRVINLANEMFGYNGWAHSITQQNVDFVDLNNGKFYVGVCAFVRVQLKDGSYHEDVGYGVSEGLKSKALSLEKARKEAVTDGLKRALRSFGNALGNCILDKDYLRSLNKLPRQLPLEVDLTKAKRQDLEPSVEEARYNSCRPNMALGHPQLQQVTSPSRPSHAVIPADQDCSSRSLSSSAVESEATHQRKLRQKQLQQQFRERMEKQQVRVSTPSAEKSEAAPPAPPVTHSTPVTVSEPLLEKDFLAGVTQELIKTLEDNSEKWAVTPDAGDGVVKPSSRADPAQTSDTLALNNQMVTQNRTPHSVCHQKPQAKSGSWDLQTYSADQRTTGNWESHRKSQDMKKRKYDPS
# Chain of CAAX prenyl protease 1 (P47154 whole entry): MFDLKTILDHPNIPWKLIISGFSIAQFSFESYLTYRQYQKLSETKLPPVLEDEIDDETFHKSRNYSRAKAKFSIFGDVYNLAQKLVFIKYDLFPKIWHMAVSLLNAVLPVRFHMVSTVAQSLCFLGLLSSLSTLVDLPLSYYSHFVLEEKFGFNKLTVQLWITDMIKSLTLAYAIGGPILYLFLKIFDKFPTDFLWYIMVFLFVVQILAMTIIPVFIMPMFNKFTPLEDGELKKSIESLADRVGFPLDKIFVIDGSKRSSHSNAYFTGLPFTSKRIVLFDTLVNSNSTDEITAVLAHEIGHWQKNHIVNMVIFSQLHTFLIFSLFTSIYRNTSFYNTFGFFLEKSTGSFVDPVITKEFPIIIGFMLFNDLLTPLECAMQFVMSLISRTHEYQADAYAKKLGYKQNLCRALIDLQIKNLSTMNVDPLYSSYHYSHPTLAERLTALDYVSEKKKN
structure (smiles),measurement,setting,value
Cc1ccc2nc3c(c(N)c2c1)CCN3C,EC50,[1],> 50 µM (active)
same,AC50,CAAX prenyl protease 1,16.6 µM (active)
same,AC50,[2],21.7 µM (active)
same,AC50,[3],15.4 µM (active)
same,EC50,[4],2.37 µM (active)
C=CCSc1nsc(NC(=O)Nc2ccc(F)cc2)n1,EC50,[5],8.13 µM (active)
same,IC50,Exodeoxyribonuclease V,> 119 µM (inactive)
same,AC50,INS1,3.1 µM (active)
same,IC50,HEK293 [6],2.64 µM (active)
same,IC50,HEK293 [7],10.1 µM (active)
same,EC50,HEK293 [8],3.56 µM (active)
same,IC50,HEK293 [9],2.93 µM (active)
same,IC50,[10],> 119 µM (inactive)
same,EC50,Streptokinase A,23.4 µM (active)
same,EC50,Streptococcus,30.4 µM (active)
Cc1nn(-c2nccs2)c2c1C(=O)CC(C)(C)C2Br (configuration not stated),AC50,[11],7.37 µM (active)
CCOc1ccc(/C=N/NC(=O)c2[nH]ncc2Br)c(O)c1,EC50,cells [12],191 µM (active)
same,IC50,[13],3.4 µM (active)
same,EC50,[14],11.5 µM (active)
same,EC50,[15],14.9 µM (active)
same,IC50,[16],3.83 µM (active)
same,EC50,[17],> 38 µM (not active)
same,EC50,[18],8.97 µM (active)
same,EC50,cells [19],7.33 µM (active)
same,EC50,[20],10.3 µM (active)
same,AC50,INS1,1.14 µM (active)
same,EC50,[21],6.69 µM (active)
same,IC50,[22],73.8 µM (active)
same,EC50,[23],1.48 µM (active)
Cc1c(C(=O)N/N=C/c2c(O)ccc3ccccc23)nnn1-c1nonc1N,EC50,[5],5.56 µM (active)
same,EC50,[24],0.953 µM (active)
same,EC50,[14],8.59 µM (active)
same,EC50,cells [25],0.958 µM (active)
same,EC50,[26],< 0.1 µM (active)
same,IC50,[27],> 80 µM (inactive)
same,EC50,[18],8.92 µM (active)
same,AC50,INS1,0.317 µM (active)
same,EC50,[28],0.898 µM (active)
same,EC50,[21],7.47 µM (active)
same,EC50,Streptokinase A,> 150 µM (not active)
same,EC50,Streptococcus,> 150 µM (not active)
same,IC50,[22],95.2 µM (active)
